Tests used:
[1] = biological target: Dimeric Monkey Ang-2FD; experiment: Surface plasmon resonance binding to dimeric monkey Ang-2FD conjugated to human IgG1; design: species or system Macca fascicularis; settings: SPR, room temperature
Procedure: Equilibrium dissociation constants (KD values) for the binding of selected purified Ang-2 antibodies to dimeric fibrinogen-like domain of human (SEQ ID NO: 519), mouse (Mus musculus; SEQ ID NO: 520) and monkey (Macca fascicularis; SEQ ID NO: 521) Ang-2 (Ang-2FD) conjugated to human IgG1 (SEQ ID NO:528) were determined by surface kinetics using a real-time biosensor surface plasmon resonance assay. Antibody was captured on a goat anti-mouse IgG polyclonal antibody surface, a goat anti-human κ polyclonal antibody (Southern Biotech, Birmingham, Ala.) surface or a goat anti-human IgG polyclonal antibody (Jackson Immuno Research Lab, West Grove, Pa.) surface created through direct amine coupling to a BIACORE™ CM5 sensor chip to form a captured antibody surface. Varying concentrations (ranging from 50 nM to 6.25 nM) of protein were injected at 100 μl/min over captured antibody surface for 90 seconds. Antigen-antibody binding and dissociation were monitored in real time at room temperature. Kinetic analysis was performed to calculate KD and half-life of antigen/antibody complex dissociation.
The above experiment was repeated using selected purified anti-Ang-2 antibodies cloned onto human IgG1.

[2] = system: COLO 205 (Human Colorectal Adenocarcinoma Cell Line) tumors; experiment: COLO 205 mouse tumor model; assay type: in vivo, mice
Procedure: Briefly, 2×10^6COLO 205 cells in 100 μl of serum-free medium were injected subcutaneously into the flank of 6-8 week old male NCr nude mice (Taconic, Hudson, N.Y.). After tumor volumes reached an average of about 150 mm^3, mice were randomized into groups for treatment with antibody or Fc protein. Mice in each treatment group were administered an anti-Ang-2 antibody or Fc protein at a concentration of 4 mg/kg via intraperitoneal injection twice per week for approximately two weeks. Tumor volumes were measured twice per week over the course of the experiment and tumor weights were measured upon excision of tumors at the conclusion of the experiment. Averages (mean+/−standard deviation) of tumor weight and growth were calculated for each treatment group. “Avg. Tumor Growth” represents the average growth from the time of treatment initiation (when tumors were approximately 150 mm^3). Percent decrease of tumor weight and growth are calculated from comparison to Fc protein measurements.
A similar experiment was carried out to assess the effect of H1H685P, in particular, on COLO 205 tumor growth. Briefly, 2×10^6 COLO 205 cells in 100 μl of serum-free medium were implanted subcutaneously into the right hind flank of 9-11 week-old male SCID CB17 mice. When the tumors reached ˜125 mm^3, mice were randomized into 5 groups (n=7-8 mice/group) and treated twice per week with Fc protein (15 mg/kg), H1H685P (5 or 25 mg/kg) or Control II (5 or 25 mg/kg) for a period of 19 days. Tumor volumes were measured twice per week over the course of the experiment and tumor weights were measured upon excision of tumors at the end of the experiment. Averages of tumor weight and growth from the beginning of treatment were calculated for each group. Percent decrease of tumor weight and growth are calculated from comparison to the Fc control group.
To determine the effect of combining an anti-Ang-2 antibody with a VEGF inhibitor on the growth of COLO 205 xenografts, 2×10^6 cells were implanted subcutaneously into the right hind flank of 6-8 week-old female SCID mice. When the tumors reached an average volume of ˜350 mm^3, mice were randomized into 4 groups (n=6 mice/group) and treated with: human Fc protein (7.5 mg/kg), H1H685P (5 mg/kg), VEGF Trap (see U.S. Pat. No. 7,087,411) (2.5 mg/kg) or the combination of H1H685P+VEGF Trap. Mice were given a total of 3 doses over 10 days of treatment. Tumor volumes were measured twice per week over the course of the experiment. Averages of tumor growth from the start of treatment (mean+/−standard deviation) were calculated for each treatment group. Percent decrease of tumor growth was calculated from comparison to the Fc control group.
To test the effect of H1H685P in combination with a chemotherapeutic agent on tumor growth, 2.5×10^6 COLO 205 tumor cells were implanted subcutaneously into the right hind flank of 8-9 week-old male SCID mice. When the tumors reached an average volume of ˜150 mm^3 (day 17 after implantation), mice were randomized into 4 groups (n=5 mice/group) and treated as follows: the first group was treated sc with 15 mg/kg hFc and intraperitoneally (ip) with 5-FU vehicle; the second group was treated sc with 15 mg/kg of H1H685P; the third group was treated ip with 75 mg/kg of 5-FU; the fourth group was treated with the combination of 15 mg/kg H1H685P sc plus 75 mg/kg 5-FU ip. Mice received a total of three treatments, administered every 3-4 days. Tumor volumes were measured twice per week over the course of the experiment. Average (mean+/−standard deviation) tumor growth from the beginning of treatment until day 38 was calculated for each group. Percent decrease of tumor growth was calculated from comparison to the control group.

[3] = biological target: T1, hAng-2FD-mFc S-480-P (Homo sapiens, UniProt O15123, S480P); experiment: Ang-2FD-mFc point mutant binding experiment (SPR), S-480-P; settings: S-480-P mutant captured; antibody/peptibody at 100 nM; 25° C.
T1 construct: made in house
T1 sequence (O15123 with tags, fused parts or gaps S480P): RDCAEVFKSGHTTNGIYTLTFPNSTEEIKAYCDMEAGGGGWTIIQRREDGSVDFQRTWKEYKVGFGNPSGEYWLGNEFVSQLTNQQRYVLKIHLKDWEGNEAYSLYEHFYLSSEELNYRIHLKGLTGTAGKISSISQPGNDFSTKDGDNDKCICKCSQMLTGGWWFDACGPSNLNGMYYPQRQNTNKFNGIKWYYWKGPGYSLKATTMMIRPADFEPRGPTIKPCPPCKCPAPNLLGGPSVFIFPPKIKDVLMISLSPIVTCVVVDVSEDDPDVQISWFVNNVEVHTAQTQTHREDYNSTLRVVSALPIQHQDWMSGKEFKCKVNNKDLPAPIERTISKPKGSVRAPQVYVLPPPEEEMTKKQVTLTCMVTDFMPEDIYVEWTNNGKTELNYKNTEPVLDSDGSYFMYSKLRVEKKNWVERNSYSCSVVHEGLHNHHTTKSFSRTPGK
Text: To further characterize binding between hAng2 and anti-hAng2 mAbs of the invention, seven variant hAng2-FD-mFc proteins were generated, each containing a single point mutation. Amino acids selected for mutation were based on the difference in sequence between hAng-2 and hAng-1 in the region that interacts with hTie-2 (FIG. 1). In particular, amino acids within the fibrinogen-like domain (FD) of Ang-2 which are believed to interact with Tie-2 based on crystal structure analysis, but which differ from the corresponding amino acid in Ang-1, were individually mutated to the corresponding hAng-1 residue. The results of this example indicate the amino acid residues of hAng-2 with which the Ang-2 preferential binding antibodies interact.
In this experiment, each of the seven hAng-2FD-mFc mutant proteins were captured (˜147-283 RU) on an anti-mouse-Fc surface created through direct chemical coupling to a BIACORE™ chip. Then each Ang-2 antibody (or peptibody, as the case may be) at 100 nM was injected over the captured mFc-tagged hAng-2FD protein surface at a flowrate of 50 μl/min for 180 sec, and the dissociation of variant hAng2-FD-mFc and antibody was monitored in real time for 20 min at 25° C.

[4] = COLO 205, SCID CB17 mice, 5 mg/kg twice per week, 19 days
[5] = COLO 205, SCID CB17 mice, 25 mg/kg twice per week, 19 days
[6] = COLO 205, female SCID mice, H1H685P 5 mg/kg, VEGF Trap 2.5 mg/kg, 3 doses over 10 days
[7] = COLO 205, male SCID mice, H1H685P 15 mg/kg sc, 5-FU 75 mg/kg ip, three treatments, until day 38

Dimeric Monkey Ang-2FD, sequence (as listed by the source): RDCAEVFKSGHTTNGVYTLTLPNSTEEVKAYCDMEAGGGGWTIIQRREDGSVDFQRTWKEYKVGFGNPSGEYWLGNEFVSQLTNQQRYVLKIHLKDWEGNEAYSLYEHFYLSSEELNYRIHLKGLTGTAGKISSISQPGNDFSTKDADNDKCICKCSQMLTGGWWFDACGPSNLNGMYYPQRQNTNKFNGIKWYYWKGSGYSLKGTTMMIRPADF

“H1H685P: human anti-Ang-2 antibody, HCVR/LCVR SEQ ID NOs 18/20; also referred to as mAb1 [Antibody H1H685P]” was tested, and the Kd [1] was 0.0994 nM, the “% Decrease in Tumor Growth” value [2, 4] was 45% and the “% Decrease in Tumor Weight” value [2, 4] was 43%. For the same substance, the “Avg Tumor Growth” value [2, 4] was 370 ± 114 mm^3, the “Avg Tumor Weight” value [2, 4] was 0.458 ± 0.125 g and the “% Decrease in Tumor Growth” value [2, 5] was 56%. For the same substance, the “% Decrease in Tumor Weight” value [2, 5] was 46%, the “Avg Tumor Growth” value [2, 5] was 295 ± 160 mm^3 and the “Avg Tumor Weight” value [2, 5] was 0.430 ± 0.139 g. The “% Decrease in Tumor Growth” value [2, 6] was 80%, the “Avg Tumor Growth” value [2, 6] was 74 ± 77 mm^3 and the “% Decrease in Tumor Growth” value [2, 7] was 29%. The “Avg Tumor Growth” value [2, 7] was 405 ± 80 mm^3, the “Anti-tumor activities in the COLO 205 mouse model (in words)” value ([2]; mouse, in vivo) was “substantial anti-tumor activities” and the Kd [3] was 0.205 nM. For the same substance, the RU [3] was 161.13 RU.

Source: patent publication US9926369B2, “Methods for treating hepatocellular cancer by administering an anti-Ang-2 antibody” (Regeneron Pharmaceuticals, Inc., priority 2009, dated 2018)
